Patent publication US6984394B2, “Plastically deformable implant” (Bausch & Lomb Incorporated, priority 1999, dated 2006)

Tests used:
[1] = Surface tension of surface-active agent; format: physicochemical; details: in aqueous solution
Text: According to the present invention, the term fluorine-containing gel is defined as a gel-like preparation which comprises a minimum of one fluorocarbon. In especially useful embodiments of the present invention, the fluorine-containing gel comprises essentially three components, i.e., a fluorocarbon, a fluorine-containing surface-active agent, and water. It is possible for different additives to be added to the fluorocarbon-containing and aqueous components. Certain compositions of surface-active agents, fluorocarbons, and water form gels which are able to completely recover their gel structure after they have been liquefied, for example, by exposure to mechanical pressure or heat. This property of the gels according to the present invention makes it possible for them to be used as a generic implant over a long period of time. If the implant material of such an implant that has been inserted into a bodily orifice were to liquefy, for example, as a result of short-term pressure, the gel structure, due to the reversibility described, would be able to recover when in a state of rest. Thus, the implant according to the present invention has a self-regulating restorative mechanism. This self-regulating restorative mechanism of a polyaphron gel is attributable to the stability of the aphrons that form the gel. After liquefaction, a gel can restore its structure only if its “building blocks,” the aphrons, were not completely destroyed. If a sufficient number of intact aphrons remain after liquefaction, a recovery is possible, and what comes as a surprise is the fact that the aphron structure is transferred to the homogenized regions of the surrounding liquid and that the gel structure is restored in the entire liquid. The stability of the aphrons depends on the intensity of the interaction between water, surface-active agent, and perfluorocarbon, which in turn is determined by the surface properties and the ability of the individual phases to spread on each other's surface. In addition, an important aspect is the intensity of the interactions of the molecules within the films that envelop the aphrons (water/surface-active agent; perfluorocarbon/surface-active agent). Thus, the self-regulating restorative mechanism is activated only if the surface properties of the surface-active agent/water and/or surface-active agent/perfluorocarbon film, on the one hand, and of the internal aphron phase, on the other hand, are properly coordinated, i.e., if the strength of the surface-active agent stabilizes the aphron structure. This can be implemented through the use of fluorine-containing surface-active agents of the general formula RF—Rpol, where RF stands for the linear or branched perfluoroalkyl groups with more than 5 carbon atoms and Rpol stands for a polar hydrocarbon residue which comprises a minimum of one functional group which is selected from CO—NH(R), CO—N(R)2, COO—, COOR, SO3; SO2N(R)2, CH2—O—R, PO2H, PO3H. The molecular weight is preferably >400 g/mol, the surface tension in aqueous solution is <30 mN/m and preferably <20 mN/m. The interfacial tension in aqueous solution with respect to the nonpolar component is <25 mN/m, preferably <10 mN/m, and the concentration is <3%, preferably <0.1%. With nonfluorinated surface-active agents, this can be achieved by means of a strong cohesive effect with an HLB value greater than 25 (HLB=hydrophilic lipophilic balance according to Griffin in J. Soc. Cosmet. Chem. 1 (1949), p. 311).

[2] = Interfacial tension with respect to the nonpolar component; format: physicochemical; details: surface-active agent, in aqueous solution
Text: According to the present invention, the term fluorine-containing gel is defined as a gel-like preparation which comprises a minimum of one fluorocarbon. In especially useful embodiments of the present invention, the fluorine-containing gel comprises essentially three components, i.e., a fluorocarbon, a fluorine-containing surface-active agent, and water. It is possible for different additives to be added to the fluorocarbon-containing and aqueous components. Certain compositions of surface-active agents, fluorocarbons, and water form gels which are able to completely recover their gel structure after they have been liquefied, for example, by exposure to mechanical pressure or heat. This property of the gels according to the present invention makes it possible for them to be used as a generic implant over a long period of time. If the implant material of such an implant that has been inserted into a bodily orifice were to liquefy, for example, as a result of short-term pressure, the gel structure, due to the reversibility described, would be able to recover when in a state of rest. Thus, the implant according to the present invention has a self-regulating restorative mechanism. This self-regulating restorative mechanism of a polyaphron gel is attributable to the stability of the aphrons that form the gel. After liquefaction, a gel can restore its structure only if its “building blocks,” the aphrons, were not completely destroyed. If a sufficient number of intact aphrons remain after liquefaction, a recovery is possible, and what comes as a surprise is the fact that the aphron structure is transferred to the homogenized regions of the surrounding liquid and that the gel structure is restored in the entire liquid. The stability of the aphrons depends on the intensity of the interaction between water, surface-active agent, and perfluorocarbon, which in turn is determined by the surface properties and the ability of the individual phases to spread on each other's surface. […]

Row | σG = interfacial tension with respect to the nonpolar component [2] | Compound | σO = surface tension [1]
1 | – | O=C(N(CCO)CCO)C(F)(F)C(F)(F)C(F)(F)C(F)(F)C(F)(F)C(F)(F)C(F)(F)F [HO31, Perfluorooctanoic acid diethanolamide] | σO < 20 mNm
2 | 19 mNm | Perfluoroalkyl ethanol oxethylate [Fluowet OTN] | 18 mNm
3 | – | CC[N+](CC)(CC)CC.O=S(=O)([O-])C(F)(F)C(F)(F)C(F)(F)C(F)(F)C(F)(F)C(F)(F)C(F)(F)C(F)(F)F [Example B248, Tetraethyl animonium salt of perfluorooctanesulfonic acid] | σO < 20 mNm
4 | 12 mNm | Fluorinated amine oxide [Fluowet OX] | 22 mNm
5 | – | Perfluorooctanoic acid tetraethyl piperazinium salt [HO224] | σO = 16 mNm
6 | – | O=C(N(CCO)CC(O)C(O)C(O)C(O)CO)C(F)(F)C(F)(F)C(F)(F)C(F)(F)C(F)(F)C(F)(F)C(F)(F)F [Example T16, Perfluorooctanoic acid N-(2-hydroxyethyl)-D-glucamide] | σO < 20 mNm
7 | – | O=C(N(CCO)C[C@H](O)[C@@H](O)[C@H](O)[C@H](O)CO)C(F)(F)C(F)(F)C(F)(F)C(F)(F)C(F)(F)C(F)(F)C(F)(F)C(F)(F)C(F)(F)F [Example T21, Perfluorodecanoic acid N-(2-hydroxyethyl)-D-glucamide] | σO < 20 mNm
8 | – | C[N+](C)(C)C.O=C([O-])C(F)(F)C(F)(F)C(F)(F)C(F)(F)C(F)(F)C(F)(F)C(F)(F)F [E 749, Tetramethyl ammonium salt of perfluorooctanoic acid] | σO < 20 mNm
9 | – | CN(C[C@H](O)[C@@H](O)[C@H](O)[C@H](O)CO)C(=O)C(F)(F)C(F)(F)C(F)(F)C(F)(F)C(F)(F)C(F)(F)C(F)(F)F [Example T14, Perfluorooctanoic acid N-methyl-D-glucamide] | σO < 20 mNm
10 | 10 mNm | Perfluoroalkyl ethanol oxethylate [Fluowet OTL] | 19 mNm
